# In patent publication US12577230B2, “2-(3-pyridin-2-yl-4-quinolin-4-yl-pyrazol-1-yl)- acetamide derivatives as inhibitors of transforming growth factor-beta receptor I/ALK5” (AGOMAB SPAIN S.L.U., priority 2020, dated 2026):
# pIC50: −log10 of the molar value.
# Tests used:
# [1] = Determination of plasma stability in human plasma; assay type: in vitro ADME; settings: 10 μM, 37° C.
# Experimental: Determination of Plasma Stability of Some Compounds
# Human plasma pooled from healthy donors extracted in citrate tubes was employed in the assay. Briefly, plates containing 10 μM compounds in plasma (total volume: 50 μL) were incubated at 37° C. at the different times (0, 30, 120 and 360 min). Then 100 μl Acetonitrile were added for precipitating plasma protein, and the plate was centrifuged at 46000 g for 60 min at 5° C. Supernatant was taken and analysed by UPLC/MS/MS for sample quantification. Stationary phase: Reverse phase Acquity UPLC® BEH C18 1.7 μm (2.1 mm×50 mm) (Waters). Mobile phase: 0.1% Formic acid water/0.1% formic acid in acetonitrile.
# Flow: 0.6 ml/min. The chromatographic equipment employed was an UPL QSM Waters Acquity. Compound concentrations were calculated from the MS peak areas.
# [2] = target: T1, Human TGFβR-1 (Homo sapiens, UniProt P36897); assay: In vitro enzyme assay: inhibition of TGFβR-1 (ADP-Glo kinase assay); assay type: biochemical; settings: TGFβR-1 kinase 50 ng/well, 50 μM ATP, 120 min RT
# T1 construct: purchased Promega V4092
# T1 sequence (P36897 34-503): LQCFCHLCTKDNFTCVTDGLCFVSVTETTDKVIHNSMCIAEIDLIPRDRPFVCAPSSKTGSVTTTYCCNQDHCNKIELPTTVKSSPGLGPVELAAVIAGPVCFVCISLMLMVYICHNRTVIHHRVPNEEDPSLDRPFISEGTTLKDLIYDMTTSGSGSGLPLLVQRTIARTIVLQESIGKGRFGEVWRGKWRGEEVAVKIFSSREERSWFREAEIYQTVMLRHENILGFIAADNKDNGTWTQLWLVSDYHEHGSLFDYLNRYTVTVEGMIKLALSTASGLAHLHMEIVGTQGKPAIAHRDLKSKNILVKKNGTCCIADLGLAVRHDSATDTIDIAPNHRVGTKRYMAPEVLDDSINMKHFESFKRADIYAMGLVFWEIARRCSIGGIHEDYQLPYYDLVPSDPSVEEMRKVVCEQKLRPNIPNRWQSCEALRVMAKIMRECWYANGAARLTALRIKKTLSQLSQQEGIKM
# Excerpt: In the present application are used the following abbreviations, with the corresponding definitions: • AcOH: Acetic Acid • ACVR2B: activin A receptor, type IIB • ALKn: activin receptor-like kinase n • ATP: adenosin triphosphate • Boc2O: tert-butyl dicarbonate • Boc: tert-Butoxycarbonyl • Clint: Intrinsic clearance • DIPEA: N,N-Diisopropylethylamine • DMA: Dimethylacetamide • DMAP: 4-Dimethylaminopyridine • DMF: N,N-Dimethylformamide • DMSO: Dimethyl sulfoxide • EDCl: N-(3-Dimethylaminopropyl)-N′-ethylcarbodiimide) • Et3N: Triethylamine • EtOAc: Ethyl acetate • EtOH: ethanol • FBS: Fetal bovine serum • H: hour • HATU: 1-[Bis(dimethylamino)methylene]-1H-1,2,3-triazolo[4,5-b]pyridinium 3-oxide hexafluorophosphate • HOBT: Hydroxybenzotriazole • HPLC: High-performance liquid chromatography • ^1H-NMR: Proton nuclear magnetic resonance • K2EDTA: ethylenediaminetetracetic acid dipotassium salt • LC: Liquid chromatography • LiHMDS: Lithium bis(trimethylsilyl)amide • LLOQ: lower limit of quantification • MeCN: Acetonitrile • MeOH: Methanol • Min: minutes • MS: Mass spectroscopy • MTBE: Methyl tert-butyl ether • NBS: N-Bromosuccinimide • NaCMC: Sodium carboxymethyl cellulose • Rt: retention time • RT: room temperature • Sem: 2-(Trimethylsilyl)ethoxymethyl • TGFβ: transforming growth factor-β • THF: Tetrahydrofuran • THF:EtOH: Tetrahydrofuran:ethanol • UPLC: ultra high-performance liquid chromatography • UV: Ultraviolet Pharmacological Activity In Vitro Enzyme Assay: Inhibition of TGFβR-1 Human TGFβR-1 inhibition experiments were carried out in a white 384-microplate low flange (Corning 3572) with ADP-Glo kinase Assay Kit (Promega V9101) and TGFβR-1 Kinase Enzyme System (Promega V4092). Test compounds and standard Galunisertib (Cayman 15312), 50 ng/well TGFβR-1 kinase and 50 μM ATP were added in a final volume of 10 μL/well, using Reaction buffer supplied by kit as assay buffer. The reaction mixture was incubated in gentle shaking for 120 min at RT, after incubation of 10 μL of ADP-Glo Reagent was added and incubated in gentle shaking for 40 min at RT. 20 μL of Kinase Detection Reagent was added and plate was incubated in gentle shaking for 30 min at RT. Luminescence (1000 ms) was measured in Perkin Elmer EnSpire Multimode plate reader. Results
# [3] = target: T2, ALK-5 (Homo sapiens, UniProt P36897); assay: Determination of the intracellular TGF-beta kinase activity (ALK-5), AlphaLISA SureFire p-SMAD3 in A549 cells; assay type: cell-based; settings: A549 cell line, TGF-β2 activated, p-SMAD3(Ser423/425)
# T2 construct: endogenous in cells; host or cells: A549
# T2 sequence (P36897 34-503): T1 sequence (P36897 34-503)
# Experimental: Determination of the Intracellular TGF-Beta Kinase Activity (ALK-5)
# The experiments were carried out in A549 cell line. 30000 cells were seeded in 200 μl of culture medium (Sigma D6046) supplemented with L-Glutamine (Sigma G7513), Penicillin/Streptomycin (Invitrogen 11058) and FBS (Sigma F9665) on a 96 wells microplate (Becton Dickinson 353072). After 16 hours medium was changed to serum free medium. Galunisertib, as inhibitor ligand (Cayman CAY-15312) and recombinant Human TGF-β2 (R&D Systems 302-B2-002) as activator of the ALK-5, were added in their corresponding wells and incubated following the instructions of the Alphascreen AlphaLISA@SureFire® Ultra™ p-SMAD3(Ser423/425) Kit (Perkin Elmer ALSU-PSM3-A500).
smiles,measurement,setting,value
"COC(=O)c1cc(Cl)cc(NC(=O)Cn2cc(-c3ccnc4ccccc34)c(-c3cccc(C)n3)n2)c1 [Comparative example 2, methyl 3-chloro-5-(2-(3-(6-methylpyridin-2-yl)-4-(quinolin-4-yl)-1H-pyrazol-1-yl)acetamido)benzoate, reference compound]",remaining percentage 0 min,[1],100%
same,remaining percentage 30 min,[1],83%
same,remaining percentage 120 min,[1],69%
same,remaining percentage 360 min,[1],67%
"Cc1cccc(-c2nn(CC(=O)Nc3cc(F)cc(C(=O)OC45CCN(CC4)CC5)c3)cc2-c2ccnc3ccccc23)n1 [Example 12, quinuclidin-4-yl 3-fluoro-5-(2-(3-(6-methylpyridin-2-yl)-4-(quinolin-4-yl)-1H-pyrazol-1-yl)acetamido)benzoate]",pIC50,[2],> 7.00
"Cc1cccc(-c2nn(CC(=O)Nc3cc(F)cc(C(=O)OCCN4CCN(C)CC4)c3)cc2-c2ccnc3ccccc23)n1 [Example 6, 2-(4-methylpiperazin-1-yl)ethyl 3-fluoro-5-(2-(3-(6-methylpyridin-2-yl)-4-(quinolin-4-yl)-1H-pyrazol-1-yl)acetamido)benzoate]",pIC50,[3],> 6.00
same,pIC50,[2],6.60 to 7.00
"Cc1cccc(-c2nn(CC(=O)Nc3cc(F)cc(C(=O)OC4CCN(C)CC4)c3)cc2-c2ccnc3ccccc23)n1 [Example 8, 1-methylpiperidin-4-yl 3-fluoro-5-(2-(3-(6-methylpyridin-2-yl)-4-(quinolin-4-yl)-1H-pyrazol-1-yl)acetamido)benzoate]",pIC50,[2],6.60 to 7.00
"Cc1cccc(-c2nn(CC(=O)Nc3cncc(C(=O)OCCN(C)C)c3)cc2-c2ccnc3ccccc23)n1 [Example 2, 2-(dimethylamino)ethyl 5-(2-(3-(6-methylpyridin-2-yl)-4-(quinolin-4-yl)-1H-pyrazol-1-yl)acetamido)nicotinate]",pIC50,[2],> 7.00
"CCNCCOC(=O)c1cc(F)cc(NC(=O)Cn2cc(-c3ccnc4ccccc34)c(-c3cccc(C)n3)n2)c1 [Example 17, 2-(ethylamino)ethyl 3-fluoro-5-(2-(3-(6-methylpyridin-2-yl)-4-(quinolin-4-yl)-1H-pyrazol-1-yl)acetamido)benzoate]",pIC50,[2],> 7.00
"Cc1cccc(-c2nn(CC(=O)Nc3cc(F)cc(C(=O)O[C@H]4CN5CCC4CC5)c3)cc2-c2ccnc3ccccc23)n1 [Example 10, (R)-quinuclidin-3-yl 3-fluoro-5-(2-(3-(6-methylpyridin-2-yl)-4-(quinolin-4-yl)-1H-pyrazol-1-yl)acetamido)benzoate]",pIC50,[2],> 7.00
"Cc1cccc(-c2nn(CC(=O)Nc3cc(F)cc(C(=O)OCCN4CC4)c3)cc2-c2ccnc3ccccc23)n1 [Example 14, 2-(aziridin-1-yl)ethyl 3-fluoro-5-(2-(3-(6-methylpyridin-2-yl)-4-(quinolin-4-yl)-1H-pyrazol-1-yl)acetamido)benzoate]",pIC50,[2],> 7.00
"Cc1cccc(-c2nn(CC(=O)Nc3ccc(C(=O)OCCN(C)C)cn3)cc2-c2ccnc3ccccc23)n1 [Example 3, 2-(dimethylamino)ethyl 6-(2-(3-(6-methylpyridin-2-yl)-4-(quinolin-4-yl)-1H-pyrazol-1-yl)acetamido)nicotinate]",pIC50,[2],6.60 to 7.00
"Cc1cccc(-c2nn(CC(=O)Nc3cc(F)cc(C(=O)OCCN4CCC4)c3)cc2-c2ccnc3ccccc23)n1 [Example 13, 2-(azetidin-1-yl)ethyl 3-fluoro-5-(2-(3-(6-methylpyridin-2-yl)-4-(quinolin-4-yl)-1H-pyrazol-1-yl)acetamido)benzoate]",pIC50,[2],6.60 to 7.00
"Cc1cccc(-c2nn(CC(=O)Nc3cc(F)cc(C(=O)OCCNC(C)C)c3)cc2-c2ccnc3ccccc23)n1 [Example 18, 2-(isopropylamino)ethyl 3-fluoro-5-(2-(3-(6-methylpyridin-2-yl)-4-(quinolin-4-yl)-1H-pyrazol-1-yl)acetamido)benzoate]",remaining percentage 0 min,[1],100%
same,remaining percentage 30 min,[1],33.9%
same,remaining percentage 120 min,[1],11.1%
same,remaining percentage 360 min,[1],0.1%
same,pIC50,[2],> 7.00
"Cc1cccc(-c2nn(CC(=O)Nc3cc(F)cc(C(=O)OCCN)c3)cc2-c2ccnc3ccccc23)n1 [Example 16, 2-aminoethyl 3-fluoro-5-(2-(3-(6-methylpyridin-2-yl)-4-(quinolin-4-yl)-1H-pyrazol-1-yl)acetamido)benzoate]",pIC50,[2],> 7.00
"Cc1cccc(-c2nn(CC(=O)Nc3cc(F)cc(C(=O)OCCO)c3)cc2-c2ccnc3ccccc23)n1 [Comparative example 3, 2-hydroxyethyl 3-fluoro-5-(2-(3-(6-methylpyridin-2-yl)-4-(quinolin-4-yl)-1H-pyrazol-1-yl)acetamido)benzoate, reference compound]",remaining percentage 0 min,[1],100%
same,remaining percentage 30 min,[1],99%
same,remaining percentage 120 min,[1],96%
same,remaining percentage 360 min,[1],73%
"Cc1cccc(-c2nn(CC(=O)Nc3cc(F)cc(C(=O)OCC4CC4)c3)cc2-c2ccnc3ccccc23)n1 [Comparative example 1, Cyclopropylmethyl 3-fluoro-5-(2-(3-(6-methylpyridin-2-yl)-4-(quinolin-4-yl)-1H-pyrazol-1-yl)acetamido)benzoate, reference compound]",remaining percentage 0 min,[1],100%
same,remaining percentage 30 min,[1],100%
same,remaining percentage 120 min,[1],88%
same,remaining percentage 360 min,[1],87%
"Cc1cccc(-c2nn(CC(=O)Nc3cc(F)cc(C(=O)OCC4CCNCC4)c3)cc2-c2ccnc3ccccc23)n1 [Example 20, piperidin-4-ylmethyl 3-fluoro-5-(2-(3-(6-methylpyridin-2-yl)-4-(quinolin-4-yl)-1H-pyrazol-1-yl)acetamido)benzoate]",pIC50,[2],6.60 to 7.00
"Cc1cccc(-c2nn(CC(=O)Nc3cc(F)cc(C(=O)O[C@@H]4CN5CCC4CC5)c3)cc2-c2ccnc3ccccc23)n1 [Example 11, (S)-quinuclidin-3-yl 3-fluoro-5-(2-(3-(6-methylpyridin-2-yl)-4-(quinolin-4-yl)-1H-pyrazol-1-yl)acetamido)benzoate]",pIC50,[2],> 7.00
